Laboratory results published in patent US20190297885A1 (Dow Global Technologies LLC, priority 2016, published 2019).

Test system: Chlorella sp. ATCC 7516
Assay: Algal efficacy testing of dry paint films (modified ASTM 5589, 6-well plates)
Format: cell-based
Conditions: 504 h
Experimental: These paints were then diluted with a biocide free acrylic/silicone based paint and mixed to prepare targeted concentrations of biocide combinations for the testing. The total biocides concentrations obtained were 125, 250, 500, 1000, 2000 and 5000 ppm. After biocides addition or dilution, the paints were mixed 90 seconds with the horse power shaker (AXEL 75M3372/Agitateur SO-10MI) until uniformity was achieved. […] After one day, the paints were applied to Schleicher & Schuell filter paper at 280 μm wet film thickness and dried for 3 days at room temperature avoiding direct exposure to sunlight. Square discs (1.8 cm×1.8 cm) were cut out from each panel and were used as the substrate for algal efficacy tests. This sample size allowed for an agar border when the sample disc was placed into the well of the test plate.
Algal efficacy was tested according to modified ASTM 5589 which is a standard accelerated test method for determining resistance of various coatings (including paints) to algal defacement. To accommodate for high-throughput screening, this method was scaled down from petri plates to 6-well plates. […]
At the end of the incubation period the samples were scored for percent inhibition regarding color intensity compared to the blank sample
The SI is calculated based on F. C. […]

N#Cc1c(Cl)c(Cl)c(Cl)c(C#N)c1Cl [Chlorothalonil, 2,4,5,6-tetrachloroisophthalonitrile]
inhibition at 10000 ppm (Total conc 10,000 ppm in paint, three weeks, color intensity vs blank, pass level 75%): 15%

O=c1[nH]c2c(c(=O)n1C1CCCCC1)CCC2 [Lenacil, 3-Cyclohexyl-6,7-dihydro-1H-cyclopentapyrimidine-2,4-(3H,5H)-dione]
inhibition at 1000 ppm: 90%
